This note sets out measurements from patent US20050176826A1, “Use of asc-1 inhibitors to treat neurological and psychiatric disorders” (H. Lundbeck A/S, priority 2002, published 2005).

Test [1] has as its system rat brain (ventral hippocampus) extracellular amino acids. The experiment in a line: Microdialysis in rat ventral hippocampus, amino acid levels in dialysate. The following applies: 1 mM infused via microdialysis probe into ventral hippocampus, 140 min (FIG. 1). The class given is in vivo. The source says: Rats (male wistar) were anaesthetized and intracerebral guide cannulas (CMA/12) were stereotaxically implanted into the brain positioning the dialysis probe tip in the ventral hippocampus (co-ordinates 5.6 mm […] to bregma, lateral −5.0 mm, 7.0 mm ventral to dura). The rats were allowed to recover from surgery for at least 2 days. On the day of the experiment, a microdialysis probe (CMA/12, 0.5 mm diameter, 3 mm length) was inserted through the guide cannula. The probes were connected via a dual channel swivel to a microinjection pump. Perfusion of the microdialysis probe with filtered Ringer solution (145 mM NaCl, 3 mM KCl, 1 mM MgCl2, 1.2 mM CaCl2) was begun shortly before insertion of the probe into the brain and continued for the duration of the experiment at a constant flow of 1 μl/min. After 165 min of stabilization, the experiments were initiated. A 20 min sampling regime was used throughout the experimental period. Time points were corrected for lag time of the perfusate from the microdialysis site to the probe outlet. The compound, S-methyl-L-cysteine (Sigma-Aldrich, St. Louis, USA) was dissolved in filtered Ringer solution (in 1 mM concentration) and was locally infused into the ventral hippocampus by reverse dialysis for 140 min (FIG. 1). After the experiments, the rats were sacrificed by decapitation. The brains were removed, frozen and sectioned (20 μm), and the position of the probes was verified. The concentrations of amino acids in the dialysates were analyzed by means of HPLC with fluorescence detection after precolumn online derivatisation with o-phatalaldehyde. The system consisted of a Hypersil AA-ODS column (5 μm, 2.1×200 mm, Agilent) with a Agilent 1100 fluoresence detector (excitation, 266-340 nm; emission, 305-340 nm). Mobile phases consisted of A: 20 mM sodium acetate, 0.018% triethylamine, 0.3% tetrahydrofuran, pH 7.2. B: 20 mM sodium acetate, 40% acetonitrile and 40% methanol, pH 7.2. The oven temperature was set at 40° C. and flow rate was 0.45 ml/min. Data were collected and analysed using ChemStation software (Agilent) after calibration with a range of standard amino acid solutions (0.1-10 μM). The mean value of 3 consecutive samples immediately preceding compound administration served as the basal level for each experiment and data were converted to percentage of basal (mean basal pre-injection values normalized to 100%).

Test [2] concerns the target T1, D-serine-sensitive Na+-independent transporter in rat cortical membranes (Rattus norvegicus, UniProt P63116).
T1 construct: from tissue; host or cells: rat cerebral cortex membranes (P2 synaptosomes), male Wistar rats
T1 sequence (P63116 1-530): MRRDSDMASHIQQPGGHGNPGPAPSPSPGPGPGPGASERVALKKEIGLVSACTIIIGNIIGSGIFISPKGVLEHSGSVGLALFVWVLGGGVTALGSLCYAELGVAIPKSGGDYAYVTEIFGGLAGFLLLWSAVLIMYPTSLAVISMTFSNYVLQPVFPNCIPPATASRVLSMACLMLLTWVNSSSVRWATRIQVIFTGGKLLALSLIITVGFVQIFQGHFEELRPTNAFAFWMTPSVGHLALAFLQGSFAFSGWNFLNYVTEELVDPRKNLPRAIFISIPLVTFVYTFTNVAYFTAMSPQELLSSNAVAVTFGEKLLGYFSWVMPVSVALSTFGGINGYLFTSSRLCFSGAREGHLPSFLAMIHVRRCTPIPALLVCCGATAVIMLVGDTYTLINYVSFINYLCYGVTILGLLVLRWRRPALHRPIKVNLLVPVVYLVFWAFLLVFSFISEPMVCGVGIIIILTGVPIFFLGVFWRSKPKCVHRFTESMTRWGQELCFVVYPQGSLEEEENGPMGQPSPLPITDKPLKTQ
T1 sequence (Q794F9 1-527 partner): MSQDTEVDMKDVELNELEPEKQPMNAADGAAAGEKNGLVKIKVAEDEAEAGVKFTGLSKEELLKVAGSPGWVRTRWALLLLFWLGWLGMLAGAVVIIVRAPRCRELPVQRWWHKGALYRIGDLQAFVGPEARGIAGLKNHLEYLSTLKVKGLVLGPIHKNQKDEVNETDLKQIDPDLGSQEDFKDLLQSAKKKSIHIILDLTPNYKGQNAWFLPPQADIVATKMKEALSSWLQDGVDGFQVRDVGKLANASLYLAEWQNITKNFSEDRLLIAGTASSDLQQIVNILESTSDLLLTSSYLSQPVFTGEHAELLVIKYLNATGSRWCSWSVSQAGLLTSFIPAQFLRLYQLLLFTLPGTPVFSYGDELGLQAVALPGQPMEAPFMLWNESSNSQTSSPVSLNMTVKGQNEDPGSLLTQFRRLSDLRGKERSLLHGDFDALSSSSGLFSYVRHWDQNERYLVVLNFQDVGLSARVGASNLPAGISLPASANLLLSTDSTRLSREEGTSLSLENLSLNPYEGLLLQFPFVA
Kind of test: Na+-independent [3H]D-serine uptake into rat cortical membranes (synaptosomes). The test is classed as biochemical. The procedure: Into cortical membranes: Cortex from male Wistar rats (150-200 g) was homogenized in 0.40 M sucrose and centrifuged at 1000×g for 10 min. […] Test compounds and tissue (1 mg orig. tissue/well) were added to 96 well plates and incubated with [^3H]-D-serine (specific activity=26.8 Ci/mmol, PerkinElmer, Cambridge, U.K.) (100 nM final concentration) for 5 min at 25° C. Samples were filtered on Unifilter GF/B glass fiber (Packard Biosciences, Meriden, Conn., USA) and washed with 3×0.25 mL assay buffer. Measurements of [^3H]-D-serine uptake into whole HEK293 cells expressing human asc-1 were performed in 96 well plates with similar conditions except that the cells were incubated for 15 min with radioligand and washed by dipping twice in cold assay buffer following incubation with radioligand. Accumulated radioactivity was extracted from the cells by adding 200 μL scintillation fluid/well (Ultima Gold, Packard Biosciences) and the plates were counted in a Microplates Scintillation Counter (Packard Biosciences). The D-serine uptake in samples containing test compounds was compared to controls without added compound or controls where transport via the asc-1 was inhibited by addition of e.g. 30 mM L-alanine.

A further test relates to System A transporters. The experiment in a line: [3H]AIB transport into cultured rat hepatocytes (Bracy et al.). The class given is cell-based. The note with it: corresponding to 81% inhibition at 5 mM.

`CSCC(N)C(=O)O` (stereo in doubt) [(S)-methyl-L-cysteine]: in test [1], the “level of alanine in rat brain dialysate” value is on record as “marked increase”, the “level of aspartate in rat brain dialysate” value is reported as “not affected”, the “level of glutamate in rat brain dialysate” value is given as “not affected” and the “level of glycine in rat brain dialysate” value is listed as “marked increase”. Also, in test [1], the “level of serine in rat brain dialysate” value is given as “marked increase” and the “level of threonine in rat brain dialysate” value is “marked increase”. The same compound yielded a Ki in test [2] of 6.6 ± 1.8 µM. The concentration for half-maximal inhibition (IC50) with System A transporters is about 1200 µM.

The term Ki denotes the dissociation constant of the complex between target and ligand, obtained from inhibition or displacement. Read a high Ki as weaker binding. The term IC50 denotes the point on the concentration scale where inhibition reaches its midpoint. Low readings indicate higher potency, high ones lower potency.
